How the values were obtained:
[1] = Determination of acute toxicity in the mouse; format: in vivo; conditions: in vivo, Behrens and Karber
Description: (§1) All the experiments described below were carried out using male rats weighing from 170 to 220 g (Wistar Af stock) and male mice weighing from 18 to 23 g (Swiss NMRI stock).
(§2) All the experiments took place in a laboratory with a constant temperature (22° ± 1° C).
(§3) All the experiments were carried out blind (without the experimenter knowing, at the time of the tests, which animals had received the substance presumed active).
(§4) Unless otherwise stated, 10 animals were always used per point.

mouse [2] = test: Determination of acute toxicity in the mouse; format: in vivo
Description: as §1, §2, §3, §4

[3] = Acute toxicity in the rat; format: in vivo; conditions: in vivo
Description: as §1, §2, §3, §4
(§5) In the rat, with either oral or intraperitoneal administration, the LD50 of 6-methyl 3,4-diphenyl-3,4,5,6-tetrahydro 2-pyrone was over 300 mg/kg.

rat [4] = test: Acute toxicity in the rat; format: in vivo
Description: as §1, §2, §3, §4, §5

rat [5] = test: Observation of the animals, rat; format: in vivo, rat (male, Wistar Af stock)
Description: as §1, §2, §3, §4

rat [6] = test: Motor activity in the rat (actimeters with photoelectric cells); format: in vivo, rat (male, Wistar Af stock)
Description: as §1
Motor activity was determined with the aid of actimeters with photoelectric cells described by Tedeschi and Coll (J. Pharm. sci. 1964, 53, 1046-1049). A minimum of 10 animals were always used per point. They show a large increase in the motor activity of rats, which becomes significant from a dose of 32 mg/kg given orally.

animals [7] = test: Test with the board containing holes; format: in vivo
Description: The method and apparatus described by BOISSIER and SIMON (Physiol. Behav. 1967, 2, 444-448) were used. During these experiments 15 animals were used per batch (except that 30 were used for the control group and 30 for the dose of 64 mg/kg).

rat [8] = test: Avoidance conditioning in the rat (shuttle-box); format: in vivo, rat (male, Wistar Af stock); conditions: 64 mg/kg oral, 8 animals
Description: as §1
The avoidance conditioning was studied in the rat placed in a shuttle-box (with 2 compartments) (of. BOISSIER and SIMON: Therapie 1968, 23, 1267-1276).

mouse [9] = test: Effects of barbiturate hypnotics, mouse; format: in vivo, mouse (male, Swiss NMRI stock); conditions: mouse, 16, 32 or 64 mg/kg oral, with pentabarbitone or barbitone sodium
Description: as §1

rat [10] = test: Effects of barbiturate hypnotics, rat; format: in vivo, rat (male, Wistar Af stock); conditions: rat, 16, 32 or 64 mg/kg oral, with pentabarbitone or barbitone sodium
Description: as §1

rats [11] = test: Test for antireserpine action, rats; format: in vivo, rat (male, Wistar Af stock); conditions: rats, 8, 16, 32 and 64 mg/kg oral; reserpine 2.5 mg/kg i.p. 4 hours before
Description: as §1

mice = test: Test for antioxotremorine action; format: in vivo, mouse (male, Swiss NMRI stock); conditions: mice, 8, 16, 32 or 64 mg/kg i.p. or oral; oxotremorine 0.5 mg/kg i.p.
Description: as §1
In mice which had been dosed intraperitoneally or orally with 8, 16, 32 or 64 mg/kg of MDTP, the effects of oxotremorine (0.5 mg/kg given intraperitoneally) were unchanged, as far as hypothermia, tremors, tears, hypersalivation and defecation were concerned.

rats [12] = test: Test of anticataleptic action (prochlorperazine catalepsy); format: in vivo, rat (male, Wistar Af stock); conditions: 16 or 64 mg/kg i.p. or oral, prochlorperazine 8 mg/kg i.p., homolateral paws, Buddha or elevator test
Description: as §1

rat [13] = test: Amphetamine stereotypy test; format: in vivo, rat (male, Wistar Af stock); conditions: rat, 32, 64 or 128 mg/kg oral 60 min before amphetamine 2 mg/kg i.p.
Description: as §1

rat [14] = test: Apomorphine stereotypy test; format: in vivo, rat (male, Wistar Af stock); conditions: rat, 32, 64 or 128 mg/kg oral 60 min before apomorphine 0.5 mg/kg s.c.
Description: as §1

monoamine oxidase = test: Monoamine oxidase inhibition (tryptamine test); format: in vivo, rat (male, Wistar Af stock); conditions: rat, 64 mg/kg i.p.; tryptamine 3 mg/kg i.v.
Description: as §1
The dose of tryptamine given was insufficient to induce convulsions (3 mg/kg by intravenous injection).

[15] = test system: convulsion-inducing attacks; test: Interaction with convulsion-inducing dose of cardiazol; format: in vivo; conditions: 64 mg/kg oral 30 min before cardiazol 160 mg/kg s.c.
animals [16] = test: animal or person; format: in vivo, rat and mouse
Description: an increase in the activity and alertness of animals without abnormal behaviour and particularly stereotyped movements ever appearing. Increased activity and alertness were found in both the rat and the mouse by observing the animals, measuring their motor activity and measuring their exploration of a board containing holes and the shortening of the reaction time of mice on a hot-plate. The increase is marked (according to the tests) from doses of 16 to 32 mg/kg given orally; it takes place rapidly after administration and lasts about 2 hours. These doses are far from the toxic level (ratio LD50/ED 50 approximately 20/1 in the mouse and over 10/1 in the rat);

[17] = 16 mg/kg orally 15 min before test
[18] = 32 mg/kg orally 15 min before test
[19] = 64 mg/kg orally 15 min before test
[20] = 128 mg/kg orally 15 min before test
[21] = 16 mg/kg orally 60 min before test
[22] = 32 mg/kg orally 60 min before test
[23] = 64 mg/kg orally 60 min before test
[24] = 128 mg/kg orally 60 min before test

CC1CC(c2ccccc2)C(c2ccccc2)C(=O)O1 (stereo not shown) [MDTP, 6-methyl-3,4-diphenyl-3,4,5,6-tetrahydro-2-pyrone]
LD50 ([1]; ip, intraperitoneal): 150 mg/kg | LD50 ([1]; oral): 625 mg/kg | ratio LD50/ED 50 (mouse [2]): approximately 20/1 | LD50 ([3]; ip, intraperitoneal): > 300 mg/kg | LD50 ([3]; oral): > 300 mg/kg | ratio LD50/ED 50 (rat [4]): over 10/1 | sexual behaviour (rat [5]): An increase in sexual behaviour | diameter of the pupils, rectal temperature (rat [5]; doses below toxic level): no change in diameter of the pupils or the rectal temperature | motor incoordination, abnormal or stereotyped movements (rat [5]; doses below toxic level): not accompanied by motor incoordination or by abnormal or stereotyped movements | hyperthermia (rat [5]; doses very close to lethal level): moderate hyperthermia | toxic signs (rat [5]; in vivo): tremors, hyperreactivity to very intense stimuli, interaggressiveness and convulsive phenomena with the rear paws stretched | excitation on observation (rat [5]; oral or intraperitoneal, from 16 mg/kg, below toxic level): slight excitation is observed with increased reaction to touching or to sound stimuli | minimal effective dose (rat [5]; oral or intraperitoneal, read-out: dose from which slight excitation is observed): 16 mg/kg | Number of bars passed over after 5 min (rat [6]; [17]): 131 % of control group | Number of bars passed over after 10 min (rat [6]; [17]): 135 % of control group | Number of bars passed over after 15 min (rat [6]; [17]): 148 % of control group | Number of bars passed over after 20 min (rat [6]; [17]): 145 % of control group | Number of bars passed over after 25 min (rat [6]; [17]): 144 % of control group | Number of bars passed over after 30 min (rat [6]; [17]): 133 % of control group | Number of bars passed over after 5 min (rat [6]; [18]): 186 % of control group | Number of bars passed over after 10 min (rat [6]; [18]): 184 % of control group | Number of bars passed over after 15 min (rat [6]; [18]): 135 % of control group | Number of bars passed over after 20 min (rat [6]; [18]): 138 % of control group | Number of bars passed over after 25 min (rat [6]; [18]): 155 % of control group | Number of bars passed over after 30 min (rat [6]; [18]): 161 % of control group | Number of bars passed over after 5 min (rat [6]; [19]): 155 % of control group | Number of bars passed over after 10 min (rat [6]; [19]): 181 % of control group | Number of bars passed over after 15 min (rat [6]; [19]): 178 % of control group | Number of bars passed over after 20 min (rat [6]; [19]): 200 % of control group | Number of bars passed over after 25 min (rat [6]; [19]): 186 % of control group | Number of bars passed over after 30 min (rat [6]; [19]): 195 % of control group | Number of bars passed over after 5 min (rat [6]; [20]): 210 % of control group | Number of bars passed over after 10 min (rat [6]; [20]): 215 % of control group | Number of bars passed over after 15 min (rat [6]; [20]): 209 % of control group | Number of bars passed over after 20 min (rat [6]; [20]): 217 % of control group | Number of bars passed over after 25 min (rat [6]; [20]): 215 % of control group | Number of bars passed over after 30 min (rat [6]; [20]): 201 % of control group | minimal effective dose (rat [6]; oral, read-out: dose from which increase in motor activity becomes significant): 32 mg/kg | displacements made in 5 min (animals [7]; [21]): 98 % of control group | holes explored in 5 min (animals [7]; [21]): 120 % of control group | displacements made in 5 min (animals [7]; [22]): 115 % of control group | holes explored in 5 min (animals [7]; [22]): 131 % of control group | displacements made in 5 min (animals [7]; [23]): 161 % of control group | holes explored in 5 min (animals [7]; [23]): 140 % of control group | displacements made in 5 min (animals [7]; [24]): 159 % of control group | holes explored in 5 min (animals [7]; [24]): 141 % of control group | minimal effective dose (animals [7]; oral, read-out: dose from which increase in number of holes explored becomes significant): 32 mg/kg | change in avoidance conditioning (rat [8]): did not produce any change in conditioning | change in time to fall asleep and sleeping period (mouse [9]): did not produce any change in the time taken to fall asleep or in the sleeping period | change in time to fall asleep and sleeping period (rat [10]): did not produce any change in the time taken to fall asleep or in the sleeping period | change in reserpine-induced hypothermia or palpebral ptosis (rats [11]): did not produce any change in the hypothermia or palpebral ptosis | effects of oxotremorine (hypothermia, tremors, tears, hypersalivation, defecation) (mice): unchanged | change in cataleptic state (rats [12]): did not produce any change in the cataleptic state | change in amphetamine-induced stereotyped movements (rat [13]): did not bring about any change in the stereotyped movements | change in apomorphine-induced stereotyped movements (rat [14]): did not bring about any change in the sterotyped movements | effects of tryptamine (inhibiting effect on monoamine oxidase) (monoamine oxidase): did not increase the effects of tryptamine | latency of convulsion-inducing attacks [15]: did not reduce the latency of the convulsion-inducing attacks | signs of sympathetic excitation, sleep preventing action (animals [16]; in vivo): does not give rise to any signs of sympathetic excitation, any sleep preventing action | sleep inhibiting effect (animals [16]; in vivo): does not have any sleep inhibiting effect | duration of increase in activity and alertness (animals [16]; oral, rat and mouse): about 2 hours | minimal effective dose (animals [16]; po, read-out: doses from which increase in activity and alertness is marked): 16 to 32 mg/kg
